Measured values published in publication PMC8401042, “Non-Toxic Dimeric Peptides Derived from the Bothropstoxin-I Are Potent SARS-CoV-2 and Papain-like Protease Inhibitors” (Molecules, 2021).
Read-outs that look alike come from different tables or passages of the source. Bridge positions count the residues as written; N and C are the ends. Square brackets hold non-standard residues; d marks the D form. Ends that are not written are not given here. Peptide text beside a SMILES is read from it. I, II: the chains in the order shown.

Columns and labels:
SARS-CoV-2 PLpro [1] = molecular target: T1, SARS-CoV-2 PLpro (Severe acute respiratory syndrome coronavirus 2, UniProt P0DTD1); experiment: SARS-CoV-2 PLpro FRET enzyme inhibition assay; type: biochemical; conditions: for inhibition at 10 µM: 10 µM peptide, 27 µM substrate, 37 °C
SARS-CoV-2 = conditions: 24 h, 100 µM
SARS-CoV-2 PLpro [2] = molecular target: T1, SARS-CoV-2 PLpro; experiment: Microscale thermophoresis (MST) binding assay; conditions: 100 nM labelled PLpro, peptides 0.015 to 500 µM, 50 mM HEPES pH 7.5, 100 mM NaCl, 2 mM DTT, DMSO 5%; triplicate, Hill fit
[3] = molecular target: SARS-CoV-2 Papain-like protease (PL^pro) (SARS-CoV-2) (UniProt P0DTD1)
[4] = molecular target: SARS-CoV-2 Papain-like protease (PL^pro) (SARS-CoV-2) (UniProt P0DTD1); remark: listed apart in the source
[5] = 70 nM enzyme, 27 µM FRET substrate, 50 mM HEPES pH 7.5, 0.01% Triton X-100, 5 mM DTT, 30 min pre-incubation at 37 °C, Hill fit, two independent experiments, read-out: IC50 against PLpro
[6] = calculated from IC50 values, Figure 3A, read-out: pIC50 (−logIC50), PLpro (converted)

Molecule	IC50 (SARS-CoV-2 PLpro [1]; [5]) [nM]	inhibition at 10 µM (SARS-CoV-2 PLpro [1]; 70 nM enzyme) [%]	SARS-CoV-2 % of inhibition at 100 µM (SARS-CoV-2) [%]	Kd (SARS-CoV-2 PLpro [2]) [µM]	IC50 (SARS-CoV-2 PLpro [1]; [6]) [nM]	percent inhibition of PL^pro activity at 10 µM peptide [3] [%]	IC50 of inhibition of PL^pro activity (cleavage of a FRET peptide substrate) [4] [µM]
CC(C)C[C@H](NC(=O)[C@H](Cc1c[nH]cn1)NC(=O)[C@H](Cc1ccc(O)cc1)NC(=O)[C@H](CCCNC(=N)N)NC(=O)[C@H](Cc1ccc(O)cc1)NC(=O)[C@H](CCCCN)NC(=O)[C@H](C)N)C(=O)N[C@@H](CCCCN)C(=O)N1CCC[C@H]1C(=O)N[C@@H](Cc1ccccc1)C(=O)NCCCC[C@H](NC(=O)[C@H](Cc1ccccc1)NC(=O)[C@@H]1CCCN1C(=O)[C@H](CCCCN)NC(=O)[C@H](CC(C)C)NC(=O)[C@H](Cc1c[nH]cn1)NC(=O)[C@H](Cc1ccc(O)cc1)NC(=O)[C@H](CCCNC(=N)N)NC(=O)[C@H](Cc1ccc(O)cc1)NC(=O)[C@H](CCCCN)NC(=O)[C@H](C)N)C(N)=O [A1] (I: H-AKYRYHLKPFK-NH2 / II: H-AKYRYHLKPF; amide I:11-II:C)	3500 ± 100	97	4	6 ± 3			
CC(C)C[C@H](NC(=O)[C@H](Cc1c[nH]cn1)NC(=O)[C@H](Cc1ccc(O)cc1)NC(=O)[C@H](CCCNC(=N)N)NC(=O)[C@H](Cc1ccc(O)cc1)NC(=O)[C@H](C)NC(=O)[C@@H](N)CCCCN)C(=O)N[C@@H](CCCCN)C(=O)N1CCC[C@H]1C(=O)N[C@@H](Cc1ccccc1)C(=O)NCCCC[C@H](NC(=O)[C@H](Cc1ccccc1)NC(=O)[C@@H]1CCCN1C(=O)[C@H](CCCCN)NC(=O)[C@H](CC(C)C)NC(=O)[C@H](Cc1c[nH]cn1)NC(=O)[C@H](Cc1ccc(O)cc1)NC(=O)[C@H](CCCNC(=N)N)NC(=O)[C@H](Cc1ccc(O)cc1)NC(=O)[C@H](C)NC(=O)[C@@H](N)CCCCN)C(N)=O [A2] (I: H-KAYRYHLKPFK-NH2 / II: H-KAYRYHLKPF; amide I:11-II:C)	2400 ± 30	99	10	7 ± 3			
CC(C)C[C@H](NC(=O)[C@H](Cc1c[nH]cn1)NC(=O)[C@H](Cc1ccc(O)cc1)NC(=O)[C@H](CCCNC(=N)N)NC(=O)[C@H](C)NC(=O)[C@H](CCCCN)NC(=O)[C@@H](N)CCCCN)C(=O)N[C@@H](CCCCN)C(=O)N1CCC[C@H]1C(=O)N[C@@H](Cc1ccccc1)C(=O)NCCCC[C@H](NC(=O)[C@H](Cc1ccccc1)NC(=O)[C@@H]1CCCN1C(=O)[C@H](CCCCN)NC(=O)[C@H](CC(C)C)NC(=O)[C@H](Cc1c[nH]cn1)NC(=O)[C@H](Cc1ccc(O)cc1)NC(=O)[C@H](CCCNC(=N)N)NC(=O)[C@H](C)NC(=O)[C@H](CCCCN)NC(=O)[C@@H](N)CCCCN)C(N)=O [A3] (I: H-KKARYHLKPFK-NH2 / II: H-KKARYHLKPF; amide I:11-II:C)	1000 ± 30	95		6 ± 4			
CC(C)C[C@H](NC(=O)[C@H](Cc1c[nH]cn1)NC(=O)[C@H](Cc1ccc(O)cc1)NC(=O)[C@H](C)NC(=O)[C@H](Cc1ccc(O)cc1)NC(=O)[C@H](CCCCN)NC(=O)[C@@H](N)CCCCN)C(=O)N[C@@H](CCCCN)C(=O)N1CCC[C@H]1C(=O)N[C@@H](Cc1ccccc1)C(=O)NCCCC[C@H](NC(=O)[C@H](Cc1ccccc1)NC(=O)[C@@H]1CCCN1C(=O)[C@H](CCCCN)NC(=O)[C@H](CC(C)C)NC(=O)[C@H](Cc1c[nH]cn1)NC(=O)[C@H](Cc1ccc(O)cc1)NC(=O)[C@H](C)NC(=O)[C@H](Cc1ccc(O)cc1)NC(=O)[C@H](CCCCN)NC(=O)[C@@H](N)CCCCN)C(N)=O [A4] (I: H-KKYAYHLKPFK-NH2 / II: H-KKYAYHLKPF; amide I:11-II:C)	2000 ± 30	97	10	3 ± 1			
CC(C)C[C@H](NC(=O)[C@H](Cc1c[nH]cn1)NC(=O)[C@H](C)NC(=O)[C@H](CCCNC(=N)N)NC(=O)[C@H](Cc1ccc(O)cc1)NC(=O)[C@H](CCCCN)NC(=O)[C@@H](N)CCCCN)C(=O)N[C@@H](CCCCN)C(=O)N1CCC[C@H]1C(=O)N[C@@H](Cc1ccccc1)C(=O)NCCCC[C@H](NC(=O)[C@H](Cc1ccccc1)NC(=O)[C@@H]1CCCN1C(=O)[C@H](CCCCN)NC(=O)[C@H](CC(C)C)NC(=O)[C@H](Cc1c[nH]cn1)NC(=O)[C@H](C)NC(=O)[C@H](CCCNC(=N)N)NC(=O)[C@H](Cc1ccc(O)cc1)NC(=O)[C@H](CCCCN)NC(=O)[C@@H](N)CCCCN)C(N)=O [A5] (I: H-KKYRAHLKPFK-NH2 / II: H-KKYRAHLKPF; amide I:11-II:C)	1900 ± 10	95		3 ± 2			
CC(C)C[C@H](NC(=O)[C@H](C)NC(=O)[C@H](Cc1ccc(O)cc1)NC(=O)[C@H](CCCNC(=N)N)NC(=O)[C@H](Cc1ccc(O)cc1)NC(=O)[C@H](CCCCN)NC(=O)[C@@H](N)CCCCN)C(=O)N[C@@H](CCCCN)C(=O)N1CCC[C@H]1C(=O)N[C@@H](Cc1ccccc1)C(=O)NCCCC[C@H](NC(=O)[C@H](Cc1ccccc1)NC(=O)[C@@H]1CCCN1C(=O)[C@H](CCCCN)NC(=O)[C@H](CC(C)C)NC(=O)[C@H](C)NC(=O)[C@H](Cc1ccc(O)cc1)NC(=O)[C@H](CCCNC(=N)N)NC(=O)[C@H](Cc1ccc(O)cc1)NC(=O)[C@H](CCCCN)NC(=O)[C@@H](N)CCCCN)C(N)=O [A6] (I: H-KKYRYALKPFK-NH2 / II: H-KKYRYALKPF; amide I:11-II:C)	1800 ± 70	97	22	5 ± 3			
CC(C)C[C@@H](NC(=O)[C@@H](Cc1c[nH]cn1)NC(=O)[C@@H](Cc1ccc(O)cc1)NC(=O)[C@@H](CCCNC(=N)N)NC(=O)[C@@H](Cc1ccc(O)cc1)NC(=O)[C@@H](CCCCN)NC(=O)[C@H](N)CCCCN)C(=O)N[C@H](CCCCN)C(=O)N1CCC[C@@H]1C(=O)N[C@H](Cc1ccccc1)C(=O)NCCCC[C@@H](NC(=O)[C@@H](Cc1ccccc1)NC(=O)[C@H]1CCCN1C(=O)[C@@H](CCCCN)NC(=O)[C@@H](CC(C)C)NC(=O)[C@@H](Cc1c[nH]cn1)NC(=O)[C@@H](Cc1ccc(O)cc1)NC(=O)[C@@H](CCCNC(=N)N)NC(=O)[C@@H](Cc1ccc(O)cc1)NC(=O)[C@@H](CCCCN)NC(=O)[C@H](N)CCCCN)C(N)=O [A12] (I: H-[dK][dK][dY][dR][dY][dH][dL][dK][dP][dF][dK]-NH2 / II: H-[dK][dK][dY][dR][dY][dH][dL][dK][dP][dF]; amide I:11-II:C; N-terminus assumed)		96	69	1.6 ± 0.3	1290		
I: KKYRYHLKPFKK-NH2 / II: KKYRYHLKPFK / III: KKYRYHLKPF / IV: KKYRYHLKPF (amide I:11-IV:C, I:12-II:C, II:11-III:C) [A11]		98	54	1 ± 0.2	1410		
IFGAILPLALGALKNLIK-NH2 [Hylin a1]						13	> 10
